“Also recorded” adds a separate entry of the source.
How the values were obtained:
Assay type in all cases: physicochemical
[1] = 2,4-D/dendrimer hard water testing (clarity, sedimentation); conditions: 30° C.; for Appearance at Addition / Appearance/Sedimentation After 24 Hrs.: 2,4-D Amine in 342 ppm hard water; for Appearance of 2,4-D solutions in hard water: all concentrations tested (from 1.4 to 10%), 342 ppm hard water, 24 hours
Experimental: 342 ppm hard water was prepared as per CIPAC method MT18. The hard water was heated to 30° C. […]

[2] = Tebuconazole 600 SC wetting study in hard water; conditions: one drop Tebuconazole 600 SC, dendrimer 0.7%, in 342 ppm hard water at 30° C.
Experimental: (§1) Formulations were prepared by mixing water, surfactant, dispersing agent, wetting agent and antifoam together then gradually adding active. High shear mix for 20-30 minutes to disperse formulation ingredients in water before adding the active and mixing until homogeneous. The mixture was milled on a Dyno bead mill (1 m/s) with 0.4-0.6 mm beads at max. 40° C. until particle size was <4 um. Dendrimer compound (in DEG) was added and stirred for 20 minutes. Thickener and antimicrobial was then added and stirred for 20 minutes. Formulations were deaerated by sonication.
Wetting studies were conducted by placing one drop of Tebuconazole 600 SC formulation in 342 ppm hard water at 30° C. and recording the time when all the formulation particles were wet and dispersed in water.

[3] = 2,4-D/dendrimer formulation stability study (crystallisation at 0° C.); conditions: for Crystallisation After 7 Days at 0° C. With Seeding: 2,4-D Amine 625 g/l seeded with 2,4-D Amine salt; for Crystallisation After 7 Days at 0° C.: without seeding
Experimental: 20 ml of 2,4-D Amine(2,4-D 625 g/l market sample, Rygel, Adama Australia) was transferred to 25 ml clear vials and dendrimer added (with or without 30% Dithethylene Glycol). Caps were tightened to ensure no moisture entered the vials. Formulations were placed in a freezer at 0° C. […] In a related experiment, formulations were prepared with seeding with 2,4-D Amine salt (Shanghai Biochemical Sci. Ltd., purity 98 in order to hasten rate of crystallisation. The results are provided in Table 2.

[4] = Water value of dendrimers with solvent (Solvesso 200); conditions: 50 g aqueous solution, 7% dendrimer and 3% DEG; until hazy
Experimental: 50 g Aqueous solution of Dendrimer were prepared containing 7% dendrimer and 3% Diethylene glycol (DEG) by weight. Solvesso 200 (C10-13 aromatic hydrocarbon solvent) was added dropwise under stirring until the solution became hazy. Weight of Solvesso added was recorded.

[5] = Tebuconazole 600 SC formulation viscosity (Table 8); conditions: dendrimer 0.7%
Experimental: as §1

[6] = Cloud point studies; conditions: 1 gm. dendrimer solution (70:30 w/w dendrimer:Diethylene Glycol) in 99 gm. of 10% NaOH solution
Experimental: 1 gm. of dendrimer solution (70:30 w/w dendrimer [Compound 1 or Compound 4]:Diethylene Glycol) was dissolved in 99 gm. of 10% NaOH solution in Deionized water and heated until hazy. Temperature of the solution was measured using calibrated thermometer.

[7] = Additional tebuconazole formulations: suspension stability and viscosity; conditions: additional tebuconazole formulation, 0.8% additive
Excerpt: Additional formulations were developed, and formulation characteristics were studied for suspension stability, and viscosity.

[8] = Solubilization of Methylated seed oil (MSO) in aqueous LA-9 solution; conditions: 50 g, until hazy
Experimental: 10% aqueous solution of Ethoxylated Lauryl alcohol-9 mole (water soluble surfactant) was prepared in Deionized water (5 g in 45 ml). Dendrimer compounds 1 and 4 were prepared 70:30 w/w in Diethylene glycol (DEG). The 10% Ethoxylated Lauryl alcohol-9 M (LA-9) solution was combined with dendrimer DEG solution at 80:20 and 60:40 w/w (total weight of 50 g).
Methylated seed oil (MSO) (STEPOSOL-ROE-W, canola oil methyl ester, Stepan) was added dropwise under stirring to the 10% LA-9 solution (with or without dendimers), until the solution became hazy. Weight of MSO added was recorded.

[9] = Solubilization of water insoluble surfactant Ethoxylated Lauryl alcohol-3 M in LA-9 solution; conditions: 50 g, until hazy
Experimental: 5% w/w aqueous solution of Ethoxylated Lauryl alcohol-9 mole (water soluble surfactant) was prepared in Deionized water (2.5 g in 47.5 ml). Dendrimer compounds 1 and 4 were diluted 70:30 w/w in Diethylene glycol. The 5% Ethoxylated Lauryl alcohol-9 M (LA-9) solution was combined with dendrimer DEG solution at 90:10, 80:20 and 70:30 w/w (total weight 50 g).
Ethoxylated lauryl alcohol-3 mole (water insoluble surfactant) was added dropwise, while stirring, to the 50 g LA-9 solution (with or without dendrimer), until it became hazy. The weight of Ethoxylated lauryl alcohol-3 M added was recorded.

[10] = Dynamic viscosity of aqueous dendrimer solution (Brookfield); conditions: aqueous solution 7% dendrimer and 3% DEG, ambient temperature, spindle no. 63 at 50 rpm
Experimental: 50 g aqueous solution of dendrimer (7% dendrimer and 3% DEG) was prepared in deionized water in a beaker, and subjected to dynamic viscosity measurement using Brookfield viscometer at ambient temperature. Viscosity studies were conducted using spindle no. 63 at 50 rpm. It was observed that viscosity of Compound-1 solution was 1.8 cps and Compound-4 solution was 0.6 cps.

[11] = Tebuconazole 600 SC hard water testing: suspensibility, column thinning, sedimentation; conditions: 2 ml Tebuconazole 600 SC, dendrimer 0.7%, in 98 ml 342 ppm hard water, 30° C., 24 hours
Experimental: as §1
98 ml of 342 ppm hard water (prepared as per CIPAC method MT18) was heated to 30° C. before adding 2 ml. of Tebuconazole 600 SC formulation. Temperature was maintained at 30° C. for 24 hours and formulation characteristics were studied for suspension stability, wetting, column thinning/separation and sedimentation.

[12] = 2,4-D Amine 625 g/l, dendrimer 2%
[13] = 2,4-D Amine 625 g/l, dendrimer 5%
[14] = 2,4-D Amine 625 g/l, dendrimer 10%

CCC(COCC(O)CN(CCOC)CCOC)(COCC(O)CN(CCOC)CCOC)COCC(O)CN(CCOC)CCOC (stereo not shown) [Compound 8, 11-((3-(bis(2-methoxyethyl)amino)-2-hydroxypropoxy)methyl)-11-ethyl-5,17-bis(2-methoxyethyl)-2,9,13,20-tetraoxa-5,17-diazahenicosane-7,15-diol]
Appearance at Addition ([1]; dendrimer 2% (w/w)): Clear | Appearance/Sedimentation After 24 Hrs. ([1]; dendrimer 2% (w/w)): Hazy with sediment | Appearance at Addition ([1]; dendrimer 5% (w/w)): Clear | Appearance/Sedimentation After 24 Hrs. ([1]; dendrimer 5% (w/w)): Hazy with sediment | Appearance at Addition ([1]; dendrimer 10% (w/w)): Clear | Appearance/Sedimentation After 24 Hrs. ([1]; dendrimer 10% (w/w)): Hazy with sediment | Appearance of 2,4-D solutions in hard water [1]: hazy solutions with sediment

CCC(COCC(O)CN(CCO)CCO)(COCC(O)CN(CCO)CCO)COCC(O)CN(CCO)CCO (stereo not shown) [Compound 1, 9-((3-(bis(2-hydroxyethyl)amino)-2-hydroxypropoxy)methyl)-9-ethyl-3,15-bis(2-hydroxyethyl)-7,11-dioxa-3,15-diazaheptadecane-1,5,13,17-tetraol, reference compound]
Wetting [2]: 33.3 s | Crystallisation After 7 Days at 0° C. With Seeding ([3]; dendrimer 1.4%, Diethylene Glycol 0.6%): Crystallised | Crystallisation After 7 Days at 0° C. With Seeding ([3]; dendrimer 3.5%, Diethylene Glycol 1.5%): Crystallised | Crystallisation After 7 Days at 0° C. With Seeding ([3]; dendrimer 7%, Diethylene Glycol 3%): Crystallised | Crystallisation at 0° C. with seeding ([3]; 2,4-D Amine 625 g/l, all the dosages of dendrimer): crystallised | Crystallisation After 14 Days at 0° C. ([3]; 2,4-D Amine 625 g/l, dendrimer 1.4%, Diethylene Glycol 0.6%): Crystallised | Crystallisation After 14 Days at 0° C. [3, 12]: Crystallised | Crystallisation After 14 Days at 0° C. ([3]; 2,4-D Amine 625 g/l, dendrimer 3.5%, Diethylene Glycol 1.5%): Crystallised | Crystallisation After 14 Days at 0° C. [3, 13]: Crystallised | Crystallisation After 14 Days at 0° C. ([3]; 2,4-D Amine 625 g/l, dendrimer 7%, Diethylene Glycol 3%): Crystallised | Crystallisation After 14 Days at 0° C. [3, 14]: Crystallised | Crystallisation After 7 Days at 0° C. [3, 12]: resulted in crystallisation; also recorded: Crystallised | Crystallisation After 7 Days at 0° C. [3, 13]: resulted in crystallisation; also recorded: Crystallised | Crystallisation After 7 Days at 0° C. [3, 14]: No | Appearance at Addition ([1]; dendrimer 1.4% (w/w), 0.6% DEG): Clear | Appearance/Sedimentation After 24 Hrs. ([1]; dendrimer 1.4% (w/w), 0.6% DEG): Hazy with sediment | Appearance at Addition ([1]; dendrimer 2% (w/w)): Clear | Appearance/Sedimentation After 24 Hrs. ([1]; dendrimer 2% (w/w)): Hazy with sediment | Appearance at Addition ([1]; dendrimer 3.5% (w/w), 1.5% DEG): Clear | Appearance/Sedimentation After 24 Hrs. ([1]; dendrimer 3.5% (w/w), 1.5% DEG): Hazy with sediment | Appearance at Addition ([1]; dendrimer 5% (w/w)): Clear | Appearance/Sedimentation After 24 Hrs. ([1]; dendrimer 5% (w/w)): Hazy with sediment | Appearance at Addition ([1]; dendrimer 7% (w/w), 3% DEG): Clear | Appearance/Sedimentation After 24 Hrs. ([1]; dendrimer 7% (w/w), 3% DEG): Hazy with sediment | Appearance at Addition ([1]; dendrimer 10% (w/w)): Clear | Appearance/Sedimentation After 24 Hrs. ([1]; dendrimer 10% (w/w)): Hazy with sediment | Appearance of 2,4-D solutions in hard water [1]: hazy solutions with sediment | Quantity Solvesso 200 added [4]: 1.31 g | Viscosity 0 C. ([5]; 0 C.): 786 | Viscosity 54 C. ([5]; 54 C.): 743 | Viscosity RT ([5]; RT): 720 cP | Cloud point (temperature at which solution turned hazy) [6]: 65 °C | Observation: consistency [7]: Pseudoplastic liquid, | Observation: sediment at 0 C. ([7]; 0 C.): no sediment at 0 C. | Viscosity (cP) 0 C. ([7]; 0 C.): 2844 cP | Viscosity (cP) RT ([7]; RT): 2566 cP | Quantity MSO added to 10% LA-9 solution ([8]; ratio LA-9 solution:dendrimer/DEG solution 60:40 (w/w), 28% dendrimer (w/w)): 0.56 g | Quantity MSO added to 10% LA-9 solution ([8]; ratio LA-9 solution:dendrimer/DEG solution 80:20 (w/w), 14% dendrimer (w/w)): 0.54 g | Quantity LA-3 added to LA-9 solution ([9]; ratio 5% LA-9 solution:dendrimer/DEG solution 70:30 (w/w), 21% dendrimer (w/w)): 1.96 g | Quantity LA-3 added to LA-9 solution ([9]; ratio 5% LA-9 solution:dendrimer/DEG solution 80:20 (w/w), 14% dendrimer (w/w)): 2.00 g | Quantity LA-3 added to LA-9 solution ([9]; ratio 5% LA-9 solution:dendrimer/DEG solution 90:10 (w/w), 7% dendrimer (w/w)): 1.83 g | Dynamic viscosity [10]: 1.8 cps | Suspensibility: Sediment [11]: 0.5 mL⁻¹ | Suspensibility: nature of sediment [11]: Compact | Suspensibility: Column Thinning ([11]; top thinning): 10 ml. Top

Reference: patent US10981858B2, “Dendrimer and formulations thereof” (Priostar Pty Ltd, priority 2015, dated 2021)
